Measured values: ChEMBL document CHEMBL1697781, “Assessment of the health effects of chemicals in humans: II. Construction of an adverse effects database for QSAR modeling” (Curr Drug Discov Technol, 2004)

How the values were obtained:
Conditions in all cases: human
[1] = test system: Hepatotoxicity; test: FDA HLAED, liver enzyme composite activity
[2] = test system: Hepatotoxicity; test: FDA HLAED, gamma-glutamyl transferase (GGT) increase
[3] = test system: Hepatotoxicity; test: FDA HLAED, alkaline phosphatase increase
[4] = test system: Hepatotoxicity; test: FDA HLAED, serum glutamic pyruvic transaminase (SGPT) increase
[5] = test system: Hepatotoxicity; test: FDA HLAED, serum glutamic oxaloacetic transaminase (SGOT) increase
[6] = test system: Hepatotoxicity; test: FDA HLAED, lactate dehydrogenase (LDH) increase
Wherever GGT Increase - Index Value is given: reference of the scale not given here.
Wherever LDH Increase - Index Value is given: reference of the scale not given here.

## CC1(C)O[C@@H]2C[C@H]3[C@@H]4C[C@H](F)C5=CC(=O)C=C[C@]5(C)[C@H]4[C@@H](O)C[C@]3(C)[C@]2(C(=O)CO)O1 [FLUNISOLIDE]
[1]
  Composite Activity - Active: 0
  Composite Activity - Marginal: 0
  Composite Activity - Score: Inactive
[2]
  GGT Increase - Activity Score: Inactive
  GGT Increase - Index Value: 0
  GGT Increase - Number of Reports: < 4
[3]
  Alkaline Phosphatase Increase - Activity Score: Inactive
  Alkaline Phosphatase Increase - Index Value: 0
  Alkaline Phosphatase Increase - Number of Reports: < 4
[4]
  SGPT Increase - Activity Score: Inactive
  SGPT Increase - Index Value: 0
  SGPT Increase - Number of Reports: < 4
[5]
  SGOT Increase - Activity Score: Inactive
  SGOT Increase - Index Value: 0
  SGOT Increase - Number of Reports: < 4
[6]
  LDH Increase - Activity Score: Inactive
  LDH Increase - Index Value: 0
  LDH Increase - Number of Reports: < 4

## CNCCC(Oc1ccc(C(F)(F)F)cc1)c1ccccc1 (stereo unspecified) [FLUOXETINE]
[1]
  Composite Activity - Active: 3
  Composite Activity - Marginal: 2
  Composite Activity - Score: Active
[2]
  GGT Increase - Activity Score: Marginally Active
  GGT Increase - Index Value: 3.3
  GGT Increase - Number of Reports: >= 4
[3]
  Alkaline Phosphatase Increase - Activity Score: Active
  Alkaline Phosphatase Increase - Index Value: 4.7
  Alkaline Phosphatase Increase - Number of Reports: >= 4
[4]
  SGPT Increase - Activity Score: Active
  SGPT Increase - Index Value: 8.7
  SGPT Increase - Number of Reports: >= 4
[5]
  SGOT Increase - Activity Score: Active
  SGOT Increase - Index Value: 9.6
  SGOT Increase - Number of Reports: >= 4
[6]
  LDH Increase - Activity Score: Marginally Active
  LDH Increase - Index Value: 3.2
  LDH Increase - Number of Reports: >= 4

## CC(C(=O)O)c1ccc(-c2ccccc2)c(F)c1 (stereo unspecified) [FLURBIPROFEN]
[1]
  Composite Activity - Active: 0
  Composite Activity - Marginal: 0
  Composite Activity - Score: Inactive
[2]
  GGT Increase - Activity Score: Inactive
  GGT Increase - Index Value: 0.9
  GGT Increase - Number of Reports: >= 4
[3]
  Alkaline Phosphatase Increase - Activity Score: Inactive
  Alkaline Phosphatase Increase - Index Value: 0.9
  Alkaline Phosphatase Increase - Number of Reports: >= 4
[4]
  SGPT Increase - Activity Score: Inactive
  SGPT Increase - Index Value: 0.9
  SGPT Increase - Number of Reports: >= 4
[5]
  SGOT Increase - Activity Score: Inactive
  SGOT Increase - Index Value: 0.9
  SGOT Increase - Number of Reports: >= 4
[6]
  LDH Increase - Activity Score: Inactive
  LDH Increase - Index Value: 0.2
  LDH Increase - Number of Reports: < 4

## CC(C)C(=O)Nc1ccc([N+](=O)[O-])c(C(F)(F)F)c1 [FLUTAMIDE]
[1]
  Composite Activity - Active: 5
  Composite Activity - Marginal: 0
  Composite Activity - Score: Active
[2]
  GGT Increase - Activity Score: Active
  GGT Increase - Index Value: 6.7
  GGT Increase - Number of Reports: >= 4
[3]
  Alkaline Phosphatase Increase - Activity Score: Active
  Alkaline Phosphatase Increase - Index Value: 16.8
  Alkaline Phosphatase Increase - Number of Reports: >= 4
[4]
  SGPT Increase - Activity Score: Active
  SGPT Increase - Index Value: 20.2
  SGPT Increase - Number of Reports: >= 4
[5]
  SGOT Increase - Activity Score: Active
  SGOT Increase - Index Value: 22.4
  SGOT Increase - Number of Reports: >= 4
[6]
  LDH Increase - Activity Score: Active
  LDH Increase - Index Value: 8.4
  LDH Increase - Number of Reports: >= 4

## C[C@@H]1C[C@H]2[C@@H]3C[C@H](F)C4=CC(=O)C=C[C@]4(C)[C@@]3(F)[C@@H](O)C[C@]2(C)[C@@]1(O)C(=O)SCF [FLUTICASONE]
[1]
  Composite Activity - Active: 0
  Composite Activity - Marginal: 0
  Composite Activity - Score: Inactive
[2]
  GGT Increase - Activity Score: Inactive
  GGT Increase - Index Value: 0
  GGT Increase - Number of Reports: < 4
[3]
  Alkaline Phosphatase Increase - Activity Score: Inactive
  Alkaline Phosphatase Increase - Index Value: 0
  Alkaline Phosphatase Increase - Number of Reports: < 4
[4]
  SGPT Increase - Activity Score: Inactive
  SGPT Increase - Index Value: 0.8
  SGPT Increase - Number of Reports: < 4
[5]
  SGOT Increase - Activity Score: Inactive
  SGOT Increase - Index Value: 0.8
  SGOT Increase - Number of Reports: < 4
[6]
  LDH Increase - Activity Score: Inactive
  LDH Increase - Index Value: 0
  LDH Increase - Number of Reports: < 4

## CC(C)n1c(/C=C/C(O)CC(O)CC(=O)O)c(-c2ccc(F)cc2)c2ccccc21 (stereo unspecified) [FLUVASTATIN]
[1]; Liver
  Composite Activity - Active: 0
  Composite Activity - Marginal: 0
  Composite Activity - Score: Inactive
[2]
  GGT Increase - Activity Score: Inactive
  GGT Increase - Index Value: 0.7
  GGT Increase - Number of Reports: >= 4
[3]
  Alkaline Phosphatase Increase - Activity Score: Inactive
  Alkaline Phosphatase Increase - Index Value: 0.5
  Alkaline Phosphatase Increase - Number of Reports: >= 4
[4]
  SGPT Increase - Activity Score: Inactive
  SGPT Increase - Index Value: 1
  SGPT Increase - Number of Reports: >= 4
[5]
  SGOT Increase - Activity Score: Inactive
  SGOT Increase - Index Value: 1
  SGOT Increase - Number of Reports: >= 4
[6]
  LDH Increase - Activity Score: Inactive
  LDH Increase - Index Value: 0
  LDH Increase - Number of Reports: < 4

## COCCCC/C(=N\OCCN)c1ccc(C(F)(F)F)cc1 [FLUVOXAMINE]
[1]
  Composite Activity - Active: 2
  Composite Activity - Marginal: 0
  Composite Activity - Score: Active
[2]
  GGT Increase - Activity Score: Inactive
  GGT Increase - Index Value: 1.4
  GGT Increase - Number of Reports: < 4
[3]
  Alkaline Phosphatase Increase - Activity Score: Inactive
  Alkaline Phosphatase Increase - Index Value: 2.7
  Alkaline Phosphatase Increase - Number of Reports: >= 4
[4]
  SGPT Increase - Activity Score: Active
  SGPT Increase - Index Value: 8.9
  SGPT Increase - Number of Reports: >= 4
[5]
  SGOT Increase - Activity Score: Active
  SGOT Increase - Index Value: 8.9
  SGOT Increase - Number of Reports: >= 4
[6]
  LDH Increase - Activity Score: Inactive
  LDH Increase - Index Value: 2.1
  LDH Increase - Number of Reports: < 4

## O=C(O)P(=O)(O)O [FOSCARNET]
[1]
  Composite Activity - Active: 5
  Composite Activity - Marginal: 0
  Composite Activity - Score: Active
[2]
  GGT Increase - Activity Score: Active
  GGT Increase - Index Value: 36.3
  GGT Increase - Number of Reports: < 4
[3]
  Alkaline Phosphatase Increase - Activity Score: Active
  Alkaline Phosphatase Increase - Index Value: 181.6
  Alkaline Phosphatase Increase - Number of Reports: >= 4
[4]
  SGPT Increase - Activity Score: Active
  SGPT Increase - Index Value: 72.6
  SGPT Increase - Number of Reports: >= 4
[5]
  SGOT Increase - Activity Score: Active
  SGOT Increase - Index Value: 121.1
  SGOT Increase - Number of Reports: >= 4
[6]
  LDH Increase - Activity Score: Active
  LDH Increase - Index Value: 48.4
  LDH Increase - Number of Reports: >= 4

## C[C@@H]1O[C@@H]1P(=O)(O)O [FOSFOMYCIN]
[1]
  Composite Activity - Active: 0
  Composite Activity - Marginal: 0
  Composite Activity - Score: Inactive
[2]
  GGT Increase - Activity Score: Inactive
  GGT Increase - Index Value: 0
  GGT Increase - Number of Reports: < 4
[3]
  Alkaline Phosphatase Increase - Activity Score: Inactive
  Alkaline Phosphatase Increase - Index Value: 0
  Alkaline Phosphatase Increase - Number of Reports: < 4
[4]
  SGPT Increase - Activity Score: Inactive
  SGPT Increase - Index Value: 0
  SGPT Increase - Number of Reports: < 4
[5]
  SGOT Increase - Activity Score: Inactive
  SGOT Increase - Index Value: 0
  SGOT Increase - Number of Reports: < 4
[6]
  LDH Increase - Activity Score: Inactive
  LDH Increase - Index Value: 0
  LDH Increase - Number of Reports: < 4

## CCC(=O)O[C@@H](O[P@](=O)(CCCCc1ccccc1)CC(=O)N1C[C@H](C2CCCCC2)C[C@H]1C(=O)O)C(C)C [FOSINOPRIL]
[1]
  Composite Activity - Active: 0
  Composite Activity - Marginal: 0
  Composite Activity - Score: Inactive
[2]
  GGT Increase - Activity Score: Inactive
  GGT Increase - Index Value: 0.6
  GGT Increase - Number of Reports: < 4
[3]
  Alkaline Phosphatase Increase - Activity Score: Inactive
  Alkaline Phosphatase Increase - Index Value: 0.3
  Alkaline Phosphatase Increase - Number of Reports: < 4
[4]
  SGPT Increase - Activity Score: Inactive
  SGPT Increase - Index Value: 1.5
  SGPT Increase - Number of Reports: >= 4
[5]
  SGOT Increase - Activity Score: Inactive
  SGOT Increase - Index Value: 1.5
  SGOT Increase - Number of Reports: >= 4
[6]
  LDH Increase - Activity Score: Inactive
  LDH Increase - Index Value: 0.6
  LDH Increase - Number of Reports: < 4

## O=C1NC(c2ccccc2)(c2ccccc2)C(=O)N1COP(=O)(O)O [FOSPHENYTOIN]
[1]
  Composite Activity - Active: 0
  Composite Activity - Marginal: 0
  Composite Activity - Score: Inactive
[2]
  GGT Increase - Activity Score: Inactive
  GGT Increase - Index Value: 0
  GGT Increase - Number of Reports: < 4
[3]
  Alkaline Phosphatase Increase - Activity Score: Inactive
  Alkaline Phosphatase Increase - Index Value: 0
  Alkaline Phosphatase Increase - Number of Reports: < 4
[4]
  SGPT Increase - Activity Score: Inactive
  SGPT Increase - Index Value: 0
  SGPT Increase - Number of Reports: < 4
[5]
  SGOT Increase - Activity Score: Inactive
  SGOT Increase - Index Value: 0
  SGOT Increase - Number of Reports: < 4
[6]
  LDH Increase - Activity Score: Inactive
  LDH Increase - Index Value: 0
  LDH Increase - Number of Reports: < 4

## NCC1(CC(=O)O)CCCCC1 [GABAPENTIN]
[1]
  Composite Activity - Active: 0
  Composite Activity - Marginal: 0
  Composite Activity - Score: Inactive
[2]
  GGT Increase - Activity Score: Inactive
  GGT Increase - Index Value: 0.7
  GGT Increase - Number of Reports: >= 4
[3]
  Alkaline Phosphatase Increase - Activity Score: Inactive
  Alkaline Phosphatase Increase - Index Value: 0.7
  Alkaline Phosphatase Increase - Number of Reports: >= 4
[4]
  SGPT Increase - Activity Score: Inactive
  SGPT Increase - Index Value: 0.8
  SGPT Increase - Number of Reports: >= 4
[5]
  SGOT Increase - Activity Score: Inactive
  SGOT Increase - Index Value: 0.8
  SGOT Increase - Number of Reports: >= 4
[6]
  LDH Increase - Activity Score: Inactive
  LDH Increase - Index Value: 0.4
  LDH Increase - Number of Reports: < 4
